Results on four molecules are retold here after ChEMBL document CHEMBL2384979, “Synthesis of the (1→6)-linked thiodisaccharide of galactofuranose: inhibitory activity against a β-galactofuranosidase” (Bioorg Med Chem, 2013).

Broadly, the Ki is the dissociation constant of the complex between target and ligand, obtained from inhibition or displacement. By IC50 is commonly meant the midpoint of a concentration-inhibition curve.

The nature of assay [1]: Competitive inhibition of Penicillium fellutanum exo-beta-galactofuranosidase assessed as 4-Nitrophenyl beta-D-galactofuranoside conversion to 4-nitrophenol after 1.5 hrs by Lineweaver-Burk plot analysis.
A short description of assay [2]: Inhibition of Penicillium fellutanum exo-beta-galactofuranosidase assessed as 4-Nitrophenyl beta-D-galactofuranoside conversion to 4-nitrophenol after 1.5 hrs by spectrophotometric analysis.

Take `O=C1O[C@@H]([C@H](O)CO)[C@H](O)[C@H]1O`: in assay [1], the Ki was determined as 100 µM.

As for `Nc1ccc(S[C@@H]2O[C@@H]([C@H](O)CO)[C@H](O)[C@H]2O)cc1`, the half-inhibitory concentration (IC50) in assay [2] came to 80 µM.

As for `CO[C@@H]1O[C@@H]([C@H](O)CS[C@@H]2O[C@@H]([C@H](O)CO)[C@H](O)[C@H]2O)[C@H](O)[C@H]1O`, the inhibition constant Ki in assay [1] was 3620 µM.

Regarding `O=[N+]([O-])c1ccc(S[C@@H]2O[C@@H]([C@H](O)CO)[C@H](O)[C@H]2O)cc1`, the IC50 in assay [2] was 600 µM.
